# Test: Stability study of polymorph U of Azilsartan Kamedoxomil at 5±3° C. for 6 months
# Type: physicochemical
# Settings: for 01) Description White to off-white coloured powder / 02) Identification By HPLC: retention time of the major peak should correspond to Azilsartan Kamedoxomil Standard preparation / 03) Loss on drying (at 60° C. under vacuum for 3 hrs) NMT 1.0% w/w / 04) Related substances Method 1: By HPLC (by Area %) i) Azilsartan NMT 1.0% / 04) Related substances Method 1: By HPLC (by Area %) ii) Azilsartan ester NMT 0.3% / 04) Related substances Method 1: By HPLC (by Area %) iii) Impurity at RRT about 1.04 NMT 0.3% / 04) Related substances Method 1: By HPLC (by Area %) iv) Any individual unspecified impurity NMT 0.2% / 04) Related substances Method 1: By HPLC (by Area %) v) Total impurities NMT 2.5% / 04) Related substances Method 2: By GCHS i) Content of 2, 3 butanedione by GCHS: NMT 0.5% / 05) Assay by HPLC (On dried basis) NLT 97.5% w/w and NMT 102.0% w/w: stability testing at 5±3° C.
structure (smiles),measurement,setting,value
"CCOc1nc2cccc(C(=O)OCc3oc(=O)oc3C)c2n1Cc1ccc(-c2ccccc2-c2noc(=O)[nH]2)cc1.[K] [polymorph U, (5-methyl-2-oxo-1,3-dioxo-4-yl)methyl-2-ethoxy-1-1{[2′-(5-oxo-4,5-dihydro-1,2,4-oxadiazol-3-yl)biphenyl-4yl]methyl}-1H-benzimidazole-7-carboxylate monopotassium salt]",change in XRPD pattern (polymorphic change),stability testing at 5±3° C. for 6 Months,no change
same,01) Description White to off-white coloured powder,6 M,White
same,02) Identification By HPLC: retention time of the major peak should correspond to Azilsartan Kamedoxomil Standard preparation,6 M,Complies
same,03) Loss on drying (at 60° C. under vacuum for 3 hrs) NMT 1.0% w/w,6 M,0.26% w/w
same,04) Related substances Method 1: By HPLC (by Area %) i) Azilsartan NMT 1.0%,6 M,0.18%
same,04) Related substances Method 1: By HPLC (by Area %) ii) Azilsartan ester NMT 0.3%,6 M,0.01%
same,04) Related substances Method 1: By HPLC (by Area %) iii) Impurity at RRT about 1.04 NMT 0.3%,6 M,0.08%
same,04) Related substances Method 1: By HPLC (by Area %) iv) Any individual unspecified impurity NMT 0.2%,6 M,0.03%
same,04) Related substances Method 1: By HPLC (by Area %) v) Total impurities NMT 2.5%,6 M,0.43%
same,"04) Related substances Method 2: By GCHS i) Content of 2, 3 butanedione by GCHS: NMT 0.5%",6 M,0.13%
same,05) Assay by HPLC (On dried basis) NLT 97.5% w/w and NMT 102.0% w/w,6 M,100.3% w/w
same,01) Description White to off-white coloured powder,Initial,White
same,02) Identification By HPLC: retention time of the major peak should correspond to Azilsartan Kamedoxomil Standard preparation,Initial,Complies
same,03) Loss on drying (at 60° C. under vacuum for 3 hrs) NMT 1.0% w/w,Initial,0.44% w/w
same,04) Related substances Method 1: By HPLC (by Area %) i) Azilsartan NMT 1.0%,Initial,0.19%
same,04) Related substances Method 1: By HPLC (by Area %) ii) Azilsartan ester NMT 0.3%,Initial,0.01%
same,04) Related substances Method 1: By HPLC (by Area %) iii) Impurity at RRT about 1.04 NMT 0.3%,Initial,0.09%
same,04) Related substances Method 1: By HPLC (by Area %) iv) Any individual unspecified impurity NMT 0.2%,Initial,0.03%
same,04) Related substances Method 1: By HPLC (by Area %) v) Total impurities NMT 2.5%,Initial,0.56%
same,"04) Related substances Method 2: By GCHS i) Content of 2, 3 butanedione by GCHS: NMT 0.5%",Initial,0.13% w/w
same,05) Assay by HPLC (On dried basis) NLT 97.5% w/w and NMT 102.0% w/w,Initial,101.7 w/w
same,Stability,studied at 5±3° C.,stable

# From patent US9902717B2, “Process of preparing potassium salt of Azilsartan medoxomil” (Unichem Laboratories Limited, priority 2015, dated 2018)
